The values that follow are results of earlier work, collected in publication PMC6601333 (Biochemical and biophysical research communications, 2019).

The structures appear in SMILES notation.

Data set [1] concerns wild type HIV-1 PR.
Data set [2] concerns HIV-2 PR.

As to `CC(C)CN(C[C@@H](O)[C@H](Cc1ccccc1)NC(=O)O[C@H]1CO[C@H]2OCC[C@H]21)S(=O)(=O)c1ccc(N)cc1` [DRV, darunavir], the “inhibition of HIV-1 PR (in words)” value in data set [1] is given as “effective inhibitors”. In data set [2], the “inhibition of HIV-2 PR (in words)” value is “effective inhibitors”.

For the compound `CC(C)CN(C[C@@H](O)[C@H](Cc1ccccc1)NC(=O)O[C@H]1CCOC1)S(=O)(=O)c1ccc(N)cc1` [APV, amprenavir], the “inhibition of HIV-2 PR, fold worse than for HIV-1 PR” value in data set [2] (relative to HIV-1 PR) is given as 19 fold.

Take `CC(C)(C)NC(=O)[C@@H]1C[C@@H]2CCCC[C@@H]2CN1C[C@@H](O)[C@H](Cc1ccccc1)NC(=O)[C@H](CC(N)=O)NC(=O)c1ccc2ccccc2n1` [SQV, saquinavir]: in data set [1], the “inhibition of HIV-1 PR (in words)” value is listed as “effective inhibitors”. For the same compound, the “inhibition of HIV-2 PR (in words)” value in data set [2] is “effective inhibitors”.
